Measured values taken from US20030187240A1, “2' -modified oligonucleotides” (ISIS Pharmaceuticals, Inc., priority 1990, published 2003).
d = 2'-deoxy (DNA); m = 2'-O-methyl; f = 2'-fluoro

Experiments:
[1] = tested on: codon-12 point mutation of mutant (activated) H-ras RNA; assay type: cell-based, human
ras mRNA = assay: Northern blot analysis of ras expression in T24 cells; assay type: cell-based, human; design: inhibition of ras expression / decrease of ras mRNA: concentration or dose not given beside the values
Procedure: The human urinary bladder cancer cell line T24 was obtained from the American Type Culture Collection (Rockville Md.). Cells were grown in McCoy's 5A medium with L-glutamine (GIBCO-BRL, Gaithersburg, Md.), supplemented with 10% heat-inactivated fetal calf serum and 50 U/ml each of penicillin and streptomycin. Cells were seeded on 100 mm plates. When they reached 70% confluency, they were treated with oligonucleotide. Plates were washed with 10 ml prewarmed PBS and 5 ml of OptiMEM (GIBCO) reduced-serum medium containing 2.5 μl DOTMA. Oligonucleotide was then added to the desired concentration. After 4 hours of treatment, the medium was replaced with McCoy's medium. Cells were harvested 48 hours after oligonucleotide treatment and RNA was isolated using a standard CsCl purification method. [Kingston in Current Protocols in Molecular Biology, F. M. Ausubel, R. Brent, R. E. Kingston, D. D. Moore, J. A. Smith, J. G. Seidman and K. Strahl, Eds., John Wiley and Sons, New York.] The human epithelioid carcinoma cell line HeLa 229 was obtained from the American Type Culture Collection (Bethesda, Md.). HeLa cells were maintained as monolayers on 6-well plates in Dulbecco's Modified Eagle's medium (DMEM) supplemented with 10 fetal bovine serum and 100 U/ml penicillin. Treatment with oligonucleotide and isolation of RNA were essentially as described above for T24 cells.
Northern hybridization: 10 μg of each RNA was electrophoresed on a 1.2% agarose/formaldehyde gel and transferred overnight to GeneBind 45 nylon membrane (Pharmacia LKB, Piscataway, N.J.) using standard methods. [Kingston in Current Protocols in Molecular Biology, F. M. Ausubel, R. Brent, R. E. Kingston, D. D. Moore, J. A. Smith, J. G. Seidman and K. Strahl, Eds., John Wiley and Sons, New York.] RNA was UV-crosslinked to the membrane. Double-stranded ^32P-labeled probes were synthesized using the Prime a Gene labeling kit (Promega, Madison Wis.). The ras probe was a SalI-NheI fragment of a cDNA clone of the activated (mutant) H-ras mRNA having a GGC-to-GTC mutation at codon-12. The control probe was G3PDH. Blots were prehybridized for 15 minutes at 68° C. with the QuickHyb hybridization solution (Stratagene, La Jolla, Calif.). The heat-denatured radioactive probe (2.5×10^6 counts/2 ml hybridization solution) mixed with 100 μl of 10 mg/ml salmon sperm DNA was added and the membrane was hybridized for 1 hour at 68° C. The blots were washed twice for 15 minutes at room temperature in 2×SSC/0.1% SDS and once for 30 minutes at 60° C. with 0.1×SSC/0.1%SDS. Blots were autoradiographed and the intensity of signal was quantitated using an ImageQuant PhosphorImager (Molecular Dynamics, Sunnyvale, Calif.). Northern blots were first hybridized with the ras probe, then stripped by boiling for 15 minutes in 0.1×SSC/0.1%SDS and rehybridized with the control G3PDH probe to check for correct sample loading.

[2] = tested on: complementary RNA strand (the sense strand); assay: Thermal melting analysis of 2′-deoxy-2′-fluoro modified oligonucleotides (Table 1); assay type: binding
[3] = tested on: RNA complement “Y” strand ribo(3′GAG CAU GGY AAG GCC AGG5′); assay: Base-pair specificity: single base-pair mismatches and a bulge (Table 2); assay type: binding
Procedure: The ability of the 2′-modified oligonucleotides to hybridize to their complementary RNA or DNA sequences was determined by thermal melting analysis. The RNA complement was synthesized from T7 RNA polymerase and a template-promoter of DNA synthesized with an Applied Biosystems, Inc. 380B RNA species was purified by ion exchange using FPLC (LKB Pharmacia, Inc.). Natural antisense oligonucleotides or those containing 2′-modifications at specific locations were added to either the RNA or DNA complement at stoichiometric concentrations and the absorbance (260 nm) hyperchromicity upon duplex to random coil transition was monitored using a Gilford Response II spectrophotometer. These measurements were performed in a buffer of 10 mM Na-phosphate, pH 7.4, 0.1 mM EDTA, and NaCl to yield an ionic strength of 10 either 0.1 M or 1.0 M. Data was analyzed by a graphic representation of 1/Tm vs ln[Ct], where [Ct] was the total oligonucleotide concentration. From this analysis the thermodynamic parameters were determined. Based upon the information gained concerning the stability of the duplex of heteroduplex formed, the placement of modified pyrimidine into oligonucleotides were assessed for their effects on helix stability.
Base-pair specificity of 2′-deoxy-2′-fluoro modified oligonucleotides with the RNA complement (a “Y” strand) was determined by effecting single base-pair mismatches and a bulge. […] In Table 2, the underlined nucleotides represent nucleotides that include a 2′-deoxy-2′-fluoro substituent.

[4] = G°37, antisense strand duplexed with RNA sense strand
[5] = difference (delta Tm) to the unmodified strand
[6] = difference to the unmodified strand
[7] = first Tm column, duplex with RNA sense strand
[8] = Y = C, mismatch, difference to Watson-Crick
[9] = Y = G, mismatch, difference to Watson-Crick
[10] = Y = None, bulged T/U, difference to Watson-Crick
[11] = Y = U, mismatch, difference to Watson-Crick

## 3984 (CCACACCGACGGCGCCC; chimeric 2'-O-methyl phosphorothioate, pattern not given here) [Oligonucleotide 3984]
[1]
  inhibition of ras-luciferase activity: greater inhibition of ras-luciferase activity than did oligonucleotide 2570
Ras mRNA
  inhibition of ras expression / decrease of ras mRNA: 81%

## C^MC^MA^M C^MA^MC^M CdGdAd CdGdG^M C^MG^MC^M C^MC^M [Oligonucleotide 3980]
Ras mRNA; result in words
  inhibition of ras expression in T24 cells: inhibited ras expression

## 3979 (CCACACCGACGGCGCCC; chimeric 2'-O-methyl phosphorothioate, pattern not given here) [Oligonucleotide 3979]
[1]
  activity at the highest concentration dose: measurable activity
  inhibition of ras-luciferase activity: neither of the oligonucleotides having either the one or the three 2′-deoxy-erythro-pentofuranosyl nucleotide subsequences showed significant activity

## oligonucleotide with the 2′-O-propyl diester flanking regions: SEQ ID NO: 1, phosphorothioate in the 7-base deoxy gap only, phosphodiester 2′-O-propyl flanking regions (DNA CCACACCGACGGCGCCC; 2'-O-propyl flanks, phosphorothioate gap, chemistry not fully specified)
[1]
  effect on ras expression (ras-luciferase reporter system), chimeric backbone-modified oligonucleotides: able to inhibit ras expression

## ps(CGA CUA UGC AAG UAC)
[2]; [4]
  G°37: -15.90 ± 0.34 kcal/mol
[2]; delta Tm per 2′-fluoro substitution
  Tm (° C.)/subst.: +2.5 °C
[2]; [5]
  Tm (° C.): +27.0 °C
[2]; [6]
  G°37: -8.32 ± 0.34 kcal/mol
[2]; [7]
  Tm (° C.): 60.9 °C

## CTC GTA CCT TCC GGT CC (CTCGTACCTTCCGGTCC; listed as DNA, chemistry not fully specified) [reference compound]
[2]; [4]
  G°37: -14.57 ± 0.13 kcal/mol
[2]; [7]
  Tm (° C.): 61.6 °C

## CUC GUA CCU UCC GGU CC (CUCGUACCUUCCGGUCC; 2'-deoxy-2'-fluoro A, T, C, chemistry not fully specified)
[2]; [4]
  G°37: -27.81 ± 0.05 kcal/mol
[2]; [5]
  Tm (° C.): +1.4 °C
[2]; [6]
  G°37: -13.24 ± 0.14 kcal/mol
[2]; [7]
  Tm (° C.): 81.6 °C

## ps(CGA CTA TGC AAG TAC) [reference compound]
[2]; [4]
  G°37: -7.58 ± 0.06 kcal/mol
[2]; [5]
  Tm (° C.): −11.2 °C
[2]; [7]
  Tm (° C.): 33.9 °C

## 3975 (CCACACCGACGGCGCCC; chimeric 2'-O-methyl phosphorothioate, pattern not given here) [Oligonucleotide 3975]
[1]
  inhibition of ras-luciferase activity: neither of the oligonucleotides having either the one or the three 2′-deoxy-erythro-pentofuranosyl nucleotide subsequences showed significant activity

## 4998 (CTTATATTCCGTCATCGCTC; sugars from the 5' end m6 d7 m7, all phosphorothioate, methylation of C and T or U not given here) [Oligonucleotide 4998]
Ras mRNA
  inhibition of ras expression / decrease of ras mRNA: 84%

## 3980 (CCACACCGACGGCGCCC; chimeric 2'-O-methyl phosphorothioate, pattern not given here) [Oligonucleotide 3980]
[1]
  inhibition of ras-luciferase activity: next greatest inhibition
Ras mRNA
  inhibition of ras expression / decrease of ras mRNA: 61%

## deoxy(CUC GUA CCU UUC CGG UCC) (CUCGUACCUUUCCGGUCC; sugars from the 5' end fffdfffffffffddffd, backbone, methylation of C and T or U not given here)
[3]; Y = A, Watson-Crick
  G°37: -27.80 ± 0.05 kcal/mol
  Tm (° C.): 81.6 °C
[3]; Y = C, mismatch
  G°37: -21.98 ± 0.28 kcal/mol
  Tm (° C.): 73.8 °C
[3]; [8]
  G°37: 5.82 ± 0.28 kcal/mol
  Tm (° C.): −7.8 °C
[3]; Y = G, mismatch
  G°37: -21.69 ± 0.16 kcal/mol
  Tm (° C.): 77.8 °C
[3]; [9]
  G°37: 6.12 ± 0.17 kcal/mol
  Tm (° C.): −3.8 °C
[3]; Y = None, bulged T/U
  G°37: -22.87 ± 0.27 kcal/mol
  Tm (° C.): 75.5 °C
[3]; [10]
  G°37: 4.94 ± 0.27 kcal/mol
  Tm (° C.): −6.2 °C
[3]; Y = U, mismatch
  G°37: -18.68 ± 0.15 kcal/mol
  Tm (° C.): 73.6 °C
[3]; [11]
  G°37: 9.13 ± 0.16 kcal/mol
  Tm (° C.): −8.0 °C
[3]; versus like-sequenced unmodified oligonucleotide
  specificity of duplex formation with the RNA complement: greater specificity than a like-sequenced unmodified oligonucleotide

## deoxy(CTC GTA CCT TTC CGG TCC) (CTCGTACCTTTCCGGTCC; DNA, backbone not given here) [reference compound]
[3]; Y = A, Watson-Crick
  G°37: -14.57 ± 0.13 kcal/mol
  Tm (° C.): 61.6 °C
[3]; Y = C, mismatch
  G°37: -12.78 ± 0.11 kcal/mol
  Tm (° C.): 54.4 °C
[3]; [8]
  G°37: 1.79 ± 0.17 kcal/mol
  Tm (° C.): −7.2 °C
[3]; Y = G, mismatch
  G°37: -16.39 ± 0.25 kcal/mol
  Tm (° C.): 61.7 °C
[3]; [9]
  G°37: -1.82 ± 0.28 kcal/mol
  Tm (° C.): 0.1 °C
[3]; Y = None, bulged T/U
  G°37: -14.86 ± 0.35 kcal/mol
  Tm (° C.): 59.4 °C
[3]; [10]
  G°37: -0.284 ± 0.37 kcal/mol
  Tm (° C.): −2.2 °C
[3]; Y = U, mismatch
  G°37: -13.48 ± 0.17 kcal/mol
  Tm (° C.): 55.9 °C
[3]; [11]
  G°37: 1.09 ± 0.22 kcal/mol
  Tm (° C.): −5.7 °C

## CTTATATTCCGTCATCGCTC [Oligonucleotide 2502]
Ras mRNA
  inhibition of ras expression / decrease of ras mRNA: 26%

## CsCsAsCsAsCsCsGsAoCsGsGsCsGsCsCsC [Oligonucleotide 4248]
[1]
  effect on ras expression (ras-luciferase reporter system), chimeric backbone-modified oligonucleotides: just as active as a full P═S molecule
